Data reported in publication PMC10636171 (Cell Death & Disease, 2023).

Legend:
MKN45 xenograft tumor [1] = test: MKN45 xenograft tumor model; format: in vivo, BALB/c nude mice; details: ig
Protocol: Male BALB/c nude mice (5-week old, 18–20 g) were purchased from Beijing Vital River Laboratory Animal Technology (Beijing Vital River LaboratoryAnimal Technology Co., Ltd., Beijing,China) and allowed to acclimate for 1 week, maintained at constant room temperature and fed a standard rodent chow and water. 1 × 10^7 cells/mL cancer cells grown in logarithmic phase were harvested and resuspended in FBS-free 1640 medium. Then, 100 μL of the cell suspension was subcutaneously injected into the right flank of each mouse. When the tumour volume was reached about 600–800 mm^3, it was removed, minced into small pieces of equal volume (2 × 2 × 2 mm^3), and transplanted subcutaneously into the nude mice. When the tumour volume was reached about 200–400 mm^3, the xenograft tumour-bearing nude mice were randomly allocated to five groups (vehicle-treated, 1D228-2mgd-treated, 1D228-4mgd-treated […] Tepotinib-treated groups, with 6 or 8 mice (The number of mice were determined according to previous experience on xenograft tumor models) per group. Each group was dosed by intragastric administration (ig) for 7–14 days. Tumour volume and body weights were recorded every day after drug treatment. At the end of the observation period, the animals were euthanized by cervical dislocation and the tumour bulks were peeled off conformed to the Guide for the Care and Use of Laboratory Animals as published by the US National Institutes of Health (NIH Publication No. 85-23, revised 1996) and approved by the Institutional Ethics Review Board of Binzhou Medical University. There was no blinding was done during the animal experiment. No animals were excluded from the analysis.

MKN45 xenograft tumor [2] = test: MKN45 xenograft: 1D228 alone versus Tepotinib and Larotrectinib; format: in vivo, nude mouse
Protocol: Male BALB/c nude mice (5-week old, 18–20 g) were purchased from Beijing Vital River Laboratory Animal Technology (Beijing Vital River LaboratoryAnimal Technology Co., Ltd., Beijing,China) and allowed to acclimate for 1 week, maintained at constant room temperature and fed a standard rodent chow and water. 1 × 10^7 cells/mL cancer cells grown in logarithmic phase were harvested and resuspended in FBS-free 1640 medium. Then, 100 μL of the cell suspension was subcutaneously injected into the right flank of each mouse. When the tumour volume was reached about 600–800 mm^3, it was removed, minced into small pieces of equal volume (2 × 2 × 2 mm^3), and transplanted subcutaneously into the nude mice. […]

ASPC1 = test: Transwell migration assay; format: cell-based, human
Protocol: (§1) Migration assay was performed using an 8 μm-pore Boyden chamber (24-well, #353097, Corning, NY, USA). Treated with 1, 5, and 10 nM 1D228 for 48 h. A total of 5 × 10^4 cells were seeded in serum-free medium in the top chamber and allowed to migrate for 48 h toward the bottom chamber containing 10% fetal bovine serum medium. Cells were fixed and permeabilized with cold 70% ethanol and methanol and stained with 0.4% crystal violet. The average number of migrating cells was evaluated from at least four independent microscope fields.

MHCC97H = test: Transwell migration assay; format: cell-based, human; details: transwell, 1, 5 and 10 nM
Protocol: as §1

[3] = system: phosphorylated c-Met in MHCC97H cells; test: Western blot of phosphorylated c-Met; format: cell-based, human; details: concentration as low as 1 nM
Protocol: (§2) Proteins (25–50 ug/lane) were separated on a 4–12% Bis-Tris NuPAGE gel and blotted onto a PVDF membrane (FluoroTrans; VWR). […] Horseradish peroxidase-conjugated secondary antibodies were from Cell Signaling. Proteins were visualized by enhanced chemiluminescence (Millipore) on ChemiDoc camera (Bio-Rad) and protein expression levels were quantified using the lmageJ software. Full anduncropped western blots are presented in Supplemental File.

[4] = system: phosphorylated c-Met in MKN45 cells; test: Western blot of phosphorylated c-Met; format: cell-based, human; details: MKN45, concentration as low as 1 nM
Protocol: as §2

[5] = Hematoxylin and eosin histology of major tissues; format: in vivo; details: following various treatments
Protocol: Female and male Kunming mice (36 mice each, 18 ~ 25 g) were purchased and housed at the SPF (Beijing) Biotechnology Co. in pathogen-free condition, maintained at constant room temperature and fed a standard rodent chow and water. The mice were randomly divided into experimental group and control group. […]. The heart, liver, lung and kidney of mice in the 750 mg/kg dose group were taken and fixed for HE staining.

Cyclin D1 = test: Western blot of Cyclin D1; format: cell-based; details: 5 nM and 10 nM
Protocol: as §2

SMILES: [2H][C@@](C)(c1cccc(-c2ncc(OCC3CCN(C)CC3)cn2)c1)n1nc(-c2cccc(C#N)c2)ccc1=O [1D228]
- TGI (MKN45 xenograft tumor [1]; 2 mg/kg/d): 74.4%
- TGI (MKN45 xenograft tumor [1]; 4 mg/kg/d): 90.7%
- TGI (MKN45 xenograft tumor [1]; 8 mg/kg/d): 94.8%
- Tumor volume reduction (MKN45 xenograft tumor [2]; MKN45 gastric cancer nude mouse transplant tumor): ~90%
- Body weight of tumor bearing mice (MKN45 xenograft tumor [2]; MKN45 xenograft): the opposite was true
- Cells blocked from migrating (ASPC1): 50–80%
- Cells blocked from migrating (MHCC97H): 50–80%
- Phosphorylated c-Met level [3]: significant reduction
- Phosphorylated c-Met level [4]: significant reduction
- Toxicity in H&E-stained heart, liver, lung and kidney [5]: no evidence of toxicity
- Cyclin D1 expression (Cyclin D1): substantially inhibited
